We go through three molecules from patent publication US5298614A, “Size limited double stranded poly I poly(cytidylate/4-thiouridylate)” (Nippon Shinyaku Co. Ltd., priority 1986, dated 1994).

One series relates to Hep-2. Description: Proliferation inhibiting action in nude mice bearing human tumor cells. In kind it is in vivo, human tumor cells in nude mice (BALB/c). The settings on record: test sample 100 μg/mouse i.v., 5-FU 25 mg/kg i.p., twice a week for four weeks. On the procedure: (§1) Each 2.5×10^6 of cell strain HeLa S3 derived from human uterus neck and cell strain Hep-2 derived from throat cancer cells were transplanted under the skin of the nude abdomen of male nude mice 5 weeks old derived from BALB/c and, on the 7th to 10th day after the transplantation, living cohesion of tumor was confirmed. Then 100 μg/mouse of test sample (intravenously) and 25 mg/kg of 5-FU (intraperitoneally) were administered twice a week for four weeks. Tumor was extracted on the fourth week after the admininstration and the weight were measured.
(§2) The test samples used were the same as that in the above (1).

A further series has as its system HeLa S3. The series is described as above. In kind it is in vivo, human tumor cells in nude mice (BALB/c). The settings on record: test sample 100 μg/mouse i.v., 5-FU 25 mg/kg i.p., twice a week for four weeks. The method, then:
as §1, §2

The subject of series [1] is interleukin 1 (cohesive cells from human peripheral blood). Put plainly: Inducing activity of interleukin 1, 3H-thymidine in-take into PHA-stimulated mice thymus cells. In kind it is cell-based. Conditions: samples 100α/ml; interleukin 1 1.25 units/ml; saline control 3370.
Experimental: Mononuclear particles were separated from normal human heparin-added peripheral blood by specific gravity centrifugation method using Ficoll-Hypaque (Pharmacia, Ficollpaque, trademark), the numbers were adjusted to 5×10^6 /ml in a 10% FCS-added RPMI medium, placed in a plastic dish, incubated at 37° C. for one hour, and the cohesive cells were used as an interleukin 1-producing source.
The sample to be tested was added to the 5×10^5 /ml of single particle, incubated at 37° C. for 24 hours, and the interleukin 1 activity in the supernatant liquid was determined by measuring a ^3 H-thymidine in-take method into a PHA-stimulated mice thymus cells using a proliferation ability of the thymus cells as a target. The control was physiological saline solution.
The next series has as its system venom phosphodiesterase. Description: Resistance against hydrolysis, time until hydrolysis arrives at 50%. In kind it is in vitro ADME. Conditions: venom phosphodiesterase enzymatic reaction. On the procedure:
Then the resistance against hydrolysis by RNase was compared in terms of the time ratio until the hydrolysis arrives at 50%. Thus, under conditions such as venom phosphodiesterase enzymatic reaction, poly I:poly C was 50 minutes while those of nucleic acid derivatives containing 4-thiouridine (SH group) and its S--S bond (n=20) are 60 minutes and, by contrast, those of nucleic acid derivatives (n=20) containing uridine (OH group) were as short as 20 minutes.

Another series is described as follows: Pyrogen test to rabbits. In kind it is in vivo. Conditions: 0.2 microgram/kg i.v., 4 hours after injection. On the procedure: Injection of poly I:poly C in vivo has been known to be pyrogenic. […] On the contrary, the nucleic acid derivatives of the present invention (both SH and S--S substances in the above cytotoxic experiment) show only 0.25° C. rise in body temperature on average and the result of the pyrogenic test was negative. In those experiments, three rabbits per group were used and a solution of the sample (0.2 microgram/kg) in 10 ml of physiological saline solution was intravenously injected beneath the ear of the rabbits and the body temperature at 4 hours after the injection was observed.

Series [2] in a line: 50% melting temperature (Tm) and hyperchromicity, UV absorbance at 260 nm. In kind it is physicochemical. Conditions: neutral condition, aqueous buffer solution containing 0.1M sodium ion. The method, then:
If the stabilization of the double stranded complex formation in nucleic acid polymer is shown with reference to the 50% melting temperature (Tm value), poly I:poly C has a 59.0° C. under a neutral condition in aqueous buffer solution containing 0.1M sodium ion while the SH-substituted nucleic acid derivative containing 4-thiouridine (n=20) and the S-substituted nucleic acid derivative (n=20) have a 59.5° C. and 59.3° C., respectively.
Among the nucleic acid derivatives obtained by the above example, those with 50 to 2,000 residue numbers of molecular size distribution were taken and their fusing curves were measured.
Sample I or II (0.7 OD/ml) in 10 mM Tris buffer (pH 7.5) containing 0.1M sodium chloride was warmed, at the rising rate of 2° C./4 minutes, from 20° C. to 90° C., the ultraviolet absorbancy at each temperature was measured at the wavelength of 260 nm, and an increase of ultraviolet absorbancy by a hyperchromicity was represented by a relative ratio giving the state at 20° C. as a base. A Beckmann-DU-8B spectrophotometer was used for the measurement. Melting of the nucleic acid derivatives was gradually observed during 35° C. to 55° C. and, at around 59° C., a sudden fusion curve was obtained. […]

Marks after values point to notes of the source that are not given here.

`O=c1[nH]cc(F)c(=O)[nH]1` [5-FU, 5-fluorouracil]: the entries for the “Inhibition Rate (%)” value with Hep-2 and with HeLa S3 were 30% and 47%, respectively. In addition, the “Weight (g) ± S.E. of tumor” value in the series on Hep-2 (control 0.88 ± 0.07) worked out at 0.56 ± 0.12 g; in the series on HeLa S3 (control 3.85 ± 0.23) it was 2.06 ± 0.35 g.

For Interleukin 1, the “In-Take Amount” value in series [1] is 12517 DPM (× 10^4).

As to “polyinosinic acid-polycitydylic acid [poly I:poly C]”, in the series on venom phosphodiesterase, the “time until the hydrolysis arrives at 50%” value stood at 50 min. Besides, in the series “Pyrogen test to rabbits”, the “body temperature rise, average” value turned out to be 1.45 °C. Further, in series [2], the “50% melting temperature (Tm value)” value came out at 59.0 °C.
